Assay results taken from a melting point compilation (Tetko et al.; mined from patent text by program, amines drawn as free bases though some values may be those of a salt).

| melting point [°C] | Structure (SMILES) |
| --- | --- |
| 152 to 154 | COc1cc(-c2csc(-c3ccccc3)n2)cc2oc(=O)c(C)c(C)c12 |
| 177 to 178 | CN1CC(C#CC2CC2)(C(F)(F)F)c2cc(Cl)ccc2NC1=O (stereo not given) |
| 178 to 180 | CC(Oc1ccc(-c2ccc(S(N)(=O)=O)c(F)c2)cc1)C(O)CCc1cccnc1 (stereo not given) |
| 55 to 57 | CCOC(=S)C(CC(=O)c1ccc(Oc2ccccc2)cc1)C(=O)CC (stereo not given) |
| 42 | COCC(C)OC(=O)c1ccc([N+](=O)[O-])cc1[N+](=O)[O-] (stereo not given) |
| 175 | CCOC(=O)C1=C(C)N(C)C(C)=C(C(=O)OC)C1c1ccccc1C#N (stereo not given) |
| 150 to 153 | COC(=N)c1ncn(C2OC(CO)C(O)C2O)n1 (stereo not given) |
| 88 to 90 | CN(C)C(=S)SC(C[N+](=O)[O-])c1cccs1 (stereo not given) |
| 162 to 164 | CCOC(=O)C1=C(C)NC(=S)N(S(=O)(=O)c2ccccc2)C1c1cccc([N+](=O)[O-])c1 (stereo not given) |
| 167 to 171 | O=C1CCC(NC(=O)C(Cl)(Cl)Cl)c2ccsc21 (stereo not given) |
| 136 to 138 | CSc1ccc(C=C(C(=O)O)c2ccc(F)cc2)cc1 |
| 133 to 134 | O=C(CCN1C(=O)c2ccccc2C1=O)c1ccccc1C(=O)c1ccc(Cl)cc1Cl |
| 176 to 178 | OCc1cnc2c(F)cccc2c1O |
| 233 | CC1(C)CCc2c(-c3ccco3)nc3sc4c(NCc5ccccn5)ncnc4c3c2C1 |
| 232 to 242 | O=c1[nH]ncc2[nH]c(-c3ccc(OC(F)F)c4c3C=CC(C3CC3)O4)cc12 (stereo not given) |
| > 250 | CC(=O)NNc1ccnc2c(NC(=O)c3c(Cl)cccc3Cl)c(C)ccc12 |
| 178 to 181 | Cc1nc2cnccc2n1-c1ccc(C=Cc2cccc(OCc3nc4cc(F)ccc4s3)c2)cc1 |
| 71 | Cc1cc(=O)c2ccccc2o1 |
| 290 to 300 | CC(=O)Nc1c2oc3cc(Cl)ccc3c2nn1C |
| 99 to 101 | O=C(O)CNC(=O)CCCc1ccccc1 |
| 184 to 185 | COc1ccc(C(=O)Nc2cccc(Cl)c2)cc1NC(=S)Nc1ccc(F)cc1 |
| 159 to 161 | CC(=O)NCC1CN(c2ccc(N3CCS(=O)CC3)c(F)c2)C(=O)O1 (stereo not given) |
| 285 to 288 | O=C1c2ccccc2CN1[C@@H]1c2cc([N+](=O)[O-])ccc2OC(CF)(CF)[C@H]1O (relative stereo) |
| 141 to 142 | CCOC(=O)[C@H](Cc1ccc(O)cc1)NC(=O)c1c(Cl)cccc1Cl |

| melting point [°C] | Structure (SMILES) |
| --- | --- |
| 87 to 91 | Cc1ccccc1-c1cn(C)cc(-c2ccccc2Cl)c1=O |
| > 320 | FC(F)(F)c1ccc2cc3[nH]c(=S)[nH]c3nc2c1 |
| 141 | COC(=O)C(Oc1cc(-n2c(=O)cc(C(F)(F)F)n(C)c2=O)c(F)cc1Cl)C(=O)OC |
| 92 to 94 | CCCCCc1c(C(C)C)nc(C(C)C)c(CO)c1-c1ccc(C)cc1 |
| 240 | Nc1ccc(NC(=O)NC(=O)c2c(F)cccc2F)cc1 |
| 142 to 144 | CCNC(=O)Nc1ccc2c(c1)C(=O)N(CCO[N+](=O)[O-])CO2 |
| 260 | CC(C)(C)c1cc(C=C2SC(=S)NC2=O)cc(C(C)(C)C)c1O |
| 150 to 152 | Cc1nc(N2CCc3ccccc3CC2)c(C#N)c(=O)n1NC(=O)OC(C)(C)C |
| 256 to 257 | Cc1cc(C2=Nn3cnnc3SC2c2ccc(F)cc2)nc2c1OCC(=O)N2 (stereo not given) |
| 140 to 141 | Clc1ncccc1-c1nc2cccnc2o1 |
| 240 to 242 | CCNC(=O)NCCc1cccc(-c2nc(=O)c3ccccc3s2)n1 |
| 120 to 122 | CCOC(=O)CCC1(NC(=O)c2ccc(Cl)c(Cl)c2)C(=O)N(CCCc2ccccc2)c2ccccc21 (stereo not given) |
| 63 to 73 | CC12CCC(CN([Si](C)(C)C)S(=O)(=O)C1)C2(C)C (single isomer, unassigned; (-)) |
| 135 to 136 | COc1ccc2[nH]cc(CCNC(=O)C(F)(F)F)c2c1 |
| 50 to 52 | COc1ccc(CC[N+](=O)[O-])cc1OC |
| 142 to 144 | CCc1ccc(C#CC(C)N(O)C(N)=O)cc1 (stereo not given) |
| 77 to 81 | CCNC(=O)c1cnn(C)c1[Si](C)(C)C |
| 177 to 178 | O=C(O)CCCC(=O)c1cn(-c2cccnc2)c2ccccc12 |
| 180 | O=C(c1ccccc1)c1ccc(O)c(Cl)c1 |
| 186 to 187 | COc1ccc2c(c1)C(=O)Cc1c(C#N)cccc1S2 |
| 151 to 153 | CC(C)c1nc(-c2cccs2)cc(-c2ccc(F)cc2)c1CO |
| 175 to 178 | CC(C)(C)N(NC(=O)c1ccccn1)C(=O)c1ccc(Cl)c(Cl)c1 |
| 121 to 124 | CN(CCO)c1nc(-c2ccc(Cl)c(C(=O)NCC34CC5CC(CC(C5)C3)C4)c2)ccc1C(=O)O |
| 240 to 242 | COc1cc2c(cc1-c1ccccc1F)NC(=O)CC(c1ccnc(C#N)c1)=N2 |

| melting point [°C] | Structure (SMILES) |
| --- | --- |
| 140 to 141 | CCOC(=O)c1cn(Cc2ccccc2)nc1OCc1ccc(OCc2nc(-c3ccco3)oc2C)nc1 |
| 142 to 144 | COc1nc2ccccc2nc1NC(=O)N1CCN(c2ccccc2F)CC1 |
| 184 to 190 | NNC(=O)N(NC(=O)CSC(=O)c1ccccc1)C(=O)CSC(=O)c1ccccc1 |
| 72 to 73 | CC(=O)c1ccc(OC2CCN(C(=O)OC(C)(C)C)CC2)cc1F |
| 120 | COC(=O)CCC/C=C(\c1cc(C)c(OC)c(C(=O)OC)c1)c1cc(C)c2oc(=O)n(C)c2c1 |
| 119 to 121 | CCCCc1nc2c(N)nc3ccccc3c2n1CCCCCS(C)=O (stereo not given) |
| 156 to 157 | O=C1C2CCCN2c2ccccc2N1Cc1ccccc1 (stereo not given) |
| 275 to 276 | N#Cc1ccc(C=Cc2cc(=O)c3cc(Br)ccc3o2)cc1 |
| 217 | OC1CSC(Oc2cccc(-c3ncccc3Cl)c2)C(O)C1O (stereo not given) |
| 175 to 176 | CC(C)(C)c1ccc(/C=C/C(=O)Nc2ccc3c(c2)CCO3)cc1 |
| 40.3 to 42.3 | COC[C@H]1CC[C@H](c2ccc(I)cc2)CC1 |
| 141 to 143 | COc1ccc(N2CC(CN3CCC(O)(c4ccccc4)CC3)OC2=O)cc1 (stereo not given) |
| > 300 | Cc1cc(N)n(C)c2nc(N)nc(=O)c1-2 |
| 200 to 202 | CCOC(=O)c1c(-c2cc(C)c(O)c(C)c2)c(C)n2c1-c1cc(OC)c(OC)cc1C(C)(C)C2 |
| 140 to 143 | CCOC(=O)Cn1c(Br)c(Br)c(C#N)c1Br |
| 288 to 289 | O=C(NNC1=NS(=O)(=O)c2ccccc21)c1ccncc1 |
| 189 to 191 | CC(C)(C)OC(=O)N[C@@H]1C(=O)N(OCC(=O)OCc2ccc([N+](=O)[O-])cc2)[C@@H]1COC(N)=O |
| 296 | NC(=O)c1ccc2[nH]c(=O)oc2c1 |
| 286 to 289 | Cn1cc(C2=C(c3c4n(c5ccccc35)CCCC4)C(=O)NC2=O)c2ccccc21 |
| 60 | COC(=O)Cc1ccc(OCCNC(=O)C2Cc3ccccc3N2S(=O)(=O)c2ccc(-c3ccc(Cl)cc3)c(C(F)(F)F)c2)cc1 (stereo not given) |
| 99 to 100 | CCc1ccc2c(C=O)c3ccccc3c(C=O)c2c1 |
| 165 to 166 | O=C(Nc1ccc2c(c1)OCO2)N1Cc2ccccc2C1 |
| 198 | Cn1cnc2c([N+](=O)[O-])cc(Br)cc21 |
| 231 to 232 | Cc1cccc(NS(=O)(=O)c2ccc(N3CCNC3=O)cc2)c1C |

| melting point [°C] | Structure (SMILES) |
| --- | --- |
| 75 to 77 | Cc1nc(C(F)(F)F)ccc1C(=O)C1=C(O)C2CCC(C2)C1=O (stereo not given) |
| 82 to 84 | CCCCOC(=O)NC(=O)C(c1ccccc1)c1ccccc1 |
| 180 to 182 | Cc1nc(Oc2ccccc2)c2nc(C)n(CCNC(=O)OC(C)(C)C)c2c1C |
| 110 to 111 | CCO/C=C1\SC(=S)N(C)C1=O |
| 146 to 148 | COc1ccc(C2C(=O)OC3=CC(O)(OC(C)=O)C=CC3=C2C)c(OC)c1 (stereo not given) |
| 92 to 93 | COc1ccc(C(=O)C=Cc2ccccc2F)cc1 |
| 194 to 195 | CNC(=NS(C)(=O)=O)NCCCCCc1nc(N)nc(N)n1 |
| 120 to 121 | CN(Cc1ccccc1)C(=O)c1cnc2c([N+](=O)[O-])cccc2c1Cl |
| 185 to 188 | CCCc1ccnc(C(=O)O)c1N |
| 104 to 109 | O=C(O)/C=C/c1cccc(OCCC(c2ccccc2)(c2ccccc2)c2ccccc2)c1 |
| 115 to 118 | C=CC(=O)N(C1CC(C)(C)NC(C)(C)C1)C1CC(C)(C)NC(C)(C)C1 |
| 153 to 154 | CCN1CCNC(=O)C1c1ccc(N)cc1 (stereo not given) |
| > 250 | Cc1cccc2c1S(=O)(=O)N=C2C1=C(O)C(C(C)(C)C)N(Cc2ccc(F)cc2)C1=O (stereo not given) |
| 105 to 110 | OCC1OC(n2cnc3c(NC4CC=CCC4c4cccs4)ncnc32)C(O)C1O (stereo not given) |
| 279 to 281 | CN(C)C1=NC2=NC3=C(CN(Cc4ccccc4)CC3=O)CN2N1 |
| 137 to 141 | COc1cc2c3ccc(OC)c(OC)c3n(C(=O)c3ccc4ccccc4c3)c2cc1OC |
| 215 to 216 | O=C(O)[C@H](Cc1ccccc1)Nc1c(NCc2ccccc2)c(=O)c1=O |
| 93 to 94 | CN(C)C(=O)C(Br)Cn1ccc(-c2ccccc2)n1 (stereo not given) |
| 107 | CCc1c(-c2cc(C)c(O)c(C)c2)[nH]c2ccccc12 |
| 293 to 295 | COc1ccc(Cl)cc1-c1c(N)c(=O)[nH]c2cc([N+](=O)[O-])ccc12 |
| 86 to 87 | CC(C)CNC(=O)c1cccnc1Oc1cccc(Cl)c1 |
| 99 to 100 | Cc1oc(-c2ccccc2)nc1CCOc1ccc(C=O)cn1 |
| 282 to 283 | Cc1nnc(-c2ccc3occ(-c4ccc(C(=O)O)c(F)c4)c3c2)o1 |

| Structure (SMILES) | melting point [°C] |
| --- | --- |
| CN(c1nnc(C(F)(F)F)s1)C1CCN(Cc2ccc(F)cc2)CC1 | 85.8 |
| Cc1ccc(C2=CCN(CCCn3c(=O)[nH]c4cccc(C)c4c3=O)CC2)cc1 | 165 to 170 |
| CCCCCCc1cc2c(s1)NC(=O)CN=C2c1ccccc1OC | 130 to 132 |
| O=C1CCCN1C(=O)NCCCN1CC=C(c2ccc(Cl)c(Cl)c2)CC1 | 136 |
| COC(OC)c1c(SC(F)(F)F)c(C#N)nn1-c1c(Cl)cc(C(F)(F)F)cc1Cl | 93 |
